Where a name gives a salt, the structure may show the parent alone. A value given as a limit tells only on which side of the number the result lay.

What all share (format): in vivo
The subject of data set [1] is heart rate. Nature of the data set: Effect on heart rate in rats (anesthetized, i.v.). Particulars: 5.0 mg/kg into jugular vein, pentobarbital-anesthetized rats. The procedure:
The effect of the test substances on heart rate is tested in rats (two) with an average weight of from 250 to 300 g for each dose. The rats are anesthetized with pentobarbital (50 mg/kg i.p. and 20 mg/kg s.c.). The test substances are injected in aqueous solution into the jugular vein (0.1 ml/100 g). The blood pressure is measured using a canula tied into a carotid artery and heart rate was recorded from an ECG (II or III derivation) obtained with needle electrodes. The heart rate of the animals in the control period is between 350 and 400 beats per minute (b/min).

Data set [2] has as its system heart rate. The data set is described as follows: Effect on heart rate in cats (anesthetised, i.v.). Particulars: chloralose-anesthetised cats. The protocol:
The effect of the test substances on heart rate is tested on cats (seven) of both sexes with an average weight of from 2.5 to 3.5 kg for each dose. The cats are anesthetised with chloralose (80 mg/kg). The test substance is injected in aqueous solution into the vena saphena. The heart rate is recorded before and after administration of the substance using a Grass tachograph from the electrocardiogram (electrode attached to the chest wall) on a Grass polygraph.

A short description of data set [3]: Toxic side effects in mice after intravenous administration. Particulars: administered intravenously, 20 mg/kg in mice. From the text: The compounds prepared according to the invention have no toxic side effects in therapeutic doses. […] In view of their pharmacological properties the compounds according to the invention are suitable for the treatment of sinus tachycardia of various origins and for the prophylaxis and therapy of ischaemic heart diseases.

`COc1cc2c(cc1OC)CC(=O)N(CCCN(C)C1CCc3cc(OC)c(OC)cc3C1)CC2.Cl` (stereo not drawn) [Substance A, 1-[7,8-Dimethoxy-1,3,4,5-tetrahydro-2H-3-benzazepin-2-on-3-yl]-3-[N-methyl-N-(6,7-dimethoxy-1,2,3,4-tetrahydronaphth-2-yl)-amino]-propane hydrochloride]: the “Lowering of heart rate measured 20 minutes after administration of substance” value (from here on “Lowering of heart rate … of substance”) in the data set on heart rate [1] is listed as -176 b/min. In addition, in the data set on heart rate [2] (0.3 mg/kg i.v.), the Half life was greater than 120 min and the “Lowering of heart rate” value is -30%. For the same compound, in the data set with heart rate [2] (1.0 mg/kg i.v.), the Half life was greater than 120 min and the “Lowering of heart rate” value is listed as -58%. Further, in data set [3], the toxic side effects result was “no toxic side effects apart from slight sedation”.

For the compound `COc1cc2c(cc1OC)CC(=O)N(CCCNC1CCc3cc(OC)c(OC)cc3C1)CC2.Cl` (stereo not drawn) [Substance B, 1-[7,8-Dimethoxy-1,3,4,5-tetrahydro-2H-3-benzazepin-2-on-3-yl]-3-[N-(6,7-dimethoxy-1,2,3,4-tetrahydronaphth-2-yl)-amino]-propane hydrochloride], the “Lowering of heart rate … of substance” value in the data set with heart rate [1] is recorded as -203 b/min. Moreover, in the data set with heart rate [2] (1.0 mg/kg i.v.), the Half life was greater than 120 min and the “Lowering of heart rate” value is on record as -55%. The toxic side effects result in data set [3] was “no toxic side effects apart from slight sedation”.

As to `COc1ccc2c(c1)CC(N(C)CCCN1CCc3cc(OC)c(OC)cc3CC1=O)CC2` (stereo not drawn) [Substance C, 1-7,8-Dimethoxy-1,3,4,5-tetrahydro-2H-3-benzazepin-2-on-3-yl]-3-[N-methyl-N-(7-methoxy-1,2,3,4-tetrahydronaphth-2-yl)-amino]-propane hydrochloride], the “Lowering of heart rate … of substance” value in the data set with heart rate [1] is listed as -184 b/min.

As for `COc1ccc2c(c1)CCC(N(C)CCCN1CCc3cc(OC)c(OC)cc3CC1=O)C2.Cl` (stereo not drawn) [Substance D, 1-[7,8-Dimethoxy-1,3,4,5-tetrahydro-2H-3-benzazepin-2-on-3-yl]-3-[N-methyl-N-(6-methoxy-1,2,3,4-tetrahydronaphth-2-yl)-amino]-propane hydrochloride], the “Lowering of heart rate … of substance” value in the data set with heart rate [1] is on record as -165 b/min.
